The numbers were not newly measured in patent US8445706B2, “Unnatural amino acids capable of covalently modifying protein phosphatases and their use as general and specific inhibitors and probes” (Board of Trustees of Northern Illinois University, priority 2008, dated 2013), which cites them from elsewhere.

For this series the following is noted: neutral or basic aqueous solutions; cited from earlier work.

Consider `O=P(O)(O)C(Br)c1ccccc1` (stereo not drawn) [α-bromobenzylphosphonate], for which the solvolysis result is on record as “undergoes solvolysis”.
